Source: paper PMC12677699, “Utilizing Proteolytic‐Resistant Nano‐Short Peptide Based on Naphthyl Tail‐Anchored to Combat Bacterial Infections” (Advanced Science, 2025)

Tests used:
E. coli ATCC 25922 [1] = test: Live/dead staining, PI and SYTO 9; type: cell-based, Escherichia coli
Text: (§1) Finally, a fluorescence microscope (EVOS FL Auto, Massachusetts, USA) was used to observe the fluorescence images of the bacteria under different background colors and representative pictures were taken.

S. aureus ATCC 29213 [2] = test: Flow cytometry, PI; type: cell-based, Staphylococcus aureus; details: 16 × 10^−6 M N4, 1 h, control 1.23%
Description: The bacterial samples were incubated with N4 for 1 h and then incubated with the PI dye (at a final concentration of 10 µg mL^−1) for a further 15 min. Finally, bacteria containing PI dye were detected by FACScan flow cytometer at 488 nm excitation wavelength, bacterial solutions (containing PI dye) without N4 treatment were used as controls.

[3] = Critical aggregation concentration, 1,8-ANS fluorescence; type: physicochemical; details: 1,8-ANS 1 × 10^−6 M, peptide 2-256 × 10^−6 M in deionized water, 1 h, ex 360 nm, em 420–670 nm, linear fitting of fluorescence intensities
Description: The self‐assembly behavior of nano‐short peptides was characterized by determining the CAC using 1,8‐ANS as a hydrophobic fluorescent probe.^[ [32] ^] Serial peptide dilutions (2‐256 × 10^−6 M in 50 µL deionized water) were prepared in 96‐well plates. 1,8‐ANS powder was solubilized in dimethylformamide (DMF) and added to the 96‐well plates (final concentration of 1 × 10^−6 M), and deionized water solution containing 1,8‐ANS was used as a blank control. After incubation for 1 h, the fluorescence emission spectra were continuously monitored with a microplate reader (Tecan Infinite200 Pro, λ excitation = 360 nm, λ emission = 420–670 nm). CAC values were determined by linear fitting of representative fluorescence intensities.

E. coli ATCC 25922 [4] = test: Time-kill kinetics; type: cell-based, Escherichia coli; details: 1 × MIC, PBS pH 7.4; n = 3
Description: (§2) Samples were collected at pre‐determined time points post‐exposure, serially diluted, and plated on Mueller‐Hinton agar (MHA) for viable colony counting after 18–24 h incubation at 37 °C. Untreated bacterial suspensions served as controls.

[5] = system: clinically isolated strains; test: MIC against clinically isolated strains (panel); type: cell-based; details: all four clinical strains of Figure 4G
Description: The MIC values of the nano‐short peptides were determined according to standard protocols.^[ [63] ^] Bacterial strains were revived from cryopreservation and cultured in Mueller–Hinton broth (MHB) to logarithmic growth phase, then diluted to a final density of 0.5–1 × 10⁶ CFU mL^−1. Serial dilutions of the nano‐short peptides were prepared in 0.2% bovine serum albumin (BSA) using a 96‐well plate format. Equal volumes of peptide solutions and bacterial suspensions were combined and incubated at 37 °C for 20–22 h. Bacterial growth was assessed by measuring absorbance at 492 nm, with MHB alone (negative control) and untreated bacterial suspension (positive control) included for reference.

in vitro = details: female, ICR, mouse, serum
Description: N4 was incubated with serum isolated from mice for different durations (0, 1, 2, 4, 8, 12 h), followed by RP‐HPLC analyses to determine the retention rate.^[ [48] ^]

E. coli ATCC 25922 [6] = test: Drug resistance assay, 30 serial passages; type: cell-based, Escherichia coli; details: E. coli ATCC 25922, 30 successive passages at sub-MIC concentrations
Description: (§3) The potential resistance development of nano‐short peptides was evaluated through 30 serial passages of E. coli ATCC 25922 and S. aureus ATCC 29213 in sub‐MIC conditions,^[ [38] ^] using gentamicin as control.

S. aureus ATCC 29213 [7] = test: Live/dead staining, PI and SYTO 9; type: cell-based, Staphylococcus aureus
Text: as §1

S. aureus ATCC 29213 [8] = test: Time-kill kinetics; type: cell-based, Staphylococcus aureus; details: PBS pH 7.4, n = 3
Description: as §2

ICR female mice = test: In vivo toxicity of N4; parameters: species or system mouse
Description: Animal experiments were conducted in accordance with the Guide for the Care and Use of Laboratory Animals at Northeast Agricultural University (NEAU‐[2011]‐9). The experimental subjects comprised female ICR mice, aged 6 to 8 weeks and weighing 19 ± 1.1 g, sourced from Liaoning Changsheng Biotechnology Co. Thirty‐two mice were randomly divided into four groups after a 3‐day pre‐feeding period, followed by intraperitoneal injections of N4 at different doses (5, 10, and 20 mg kg^−1) to assess its toxicity, with saline treatment serving as the control group. Following injection, behavioral alterations were observed over a brief duration (0.5, 1, 4, and 8 h), and then body weight changes were monitored for 3 days. On the third day, the mice were euthanized via ether inhalation anesthesia, and blood samples were collected from the orbital vein for biochemical analysis, which was used to determine the levels of ALT, ALP, BUN, CREA, and TBIL. Subsequently, the liver, spleen, and kidneys were taken to determine organ coefficients. The relative organ weights were calculated using the formula: relative organ weight (%) = (organ weight/mouse body weight) × 100%. These organs were then fixed in 4% paraformaldehyde, following established protocols, for subsequent histological examination.^[ [70] ^]

S. aureus ATCC 29213 [9] = test: Drug resistance assay, 30 serial passages; type: cell-based, Staphylococcus aureus; details: S. aureus ATCC 29213, 30 successive passages at sub-MIC concentrations; gentamicin by day 17
Description: as §3

[10] = 5, 10, 20 mg kg^−1 intraperitoneal, day 3, p > 0.05, n = 8

N=C(N)NCCC[C@H](NC(=O)[C@@H](CCCNC(=N)N)NC(=O)[C@H](Cc1cccc2ccccc12)NC(=O)[C@H](Cc1cccc2ccccc12)NC(=O)[C@H](Cc1cccc2ccccc12)NC(=O)[C@@H](N)Cc1cccc2ccccc12)C(=O)N[C@@H](CCCNC(=N)N)C(=O)N1CCC[C@H]1C(=O)O (stereo in doubt) [Peptide N4]
red (PI)/green (SYTO 9) fluorescence overlap rate (E. coli ATCC 25922 [1]; 16 × 10^−6 M N4, E. coli ATCC 25922, ImageJ): 79.11% | red (PI)/green (SYTO 9) fluorescence overlap rate (E. coli ATCC 25922 [1]; 256 × 10^−6 M N4, E. coli ATCC 25922, ImageJ): 99.29% | PI-positive proportion (S. aureus ATCC 29213 [2]): 36.7% | critical aggregation concentration (CAC) [3]: 5.78 µM | time to eliminate all E. coli ATCC 25922 cells (E. coli ATCC 25922 [4]): ≤ 1500 s | MIC values against clinically isolated strains [5]: ≤ 16 µM | remaining at 4 h (in vitro): > 50% | remaining at 12 h (in vitro): 8.1% | increase in MIC values after serial passage (E. coli ATCC 25922 [6]): remained largely unchanged | red (PI)/green (SYTO 9) fluorescence overlap rate (S. aureus ATCC 29213 [7]; 16 × 10^−6 M N4, S. aureus ATCC 29213, ImageJ): 90.74% | red (PI)/green (SYTO 9) fluorescence overlap rate (S. aureus ATCC 29213 [7]; 256 × 10^−6 M N4, S. aureus ATCC 29213, ImageJ): 98.65% | time to eliminate all S. aureus ATCC 29213 cells (S. aureus ATCC 29213 [8]; 1 × MIC): ≤ 3000 s | time to eliminate all S. aureus ATCC 29213 cells (S. aureus ATCC 29213 [8]; 4 × MIC): ≤ 1200 s | clinical signs (ICR female mice; 20 mg kg^−1 intraperitoneal, ICR female mice, only two mice, within 1 h, n = 8): mild and transient symptoms | body weight vs control group (ICR female mice; 5, 10, 20 mg kg^−1 intraperitoneal, 3 days, p > 0.05, n = 8): no significant differences | histopathology of liver, spleen, kidney (H&E) (ICR female mice; 5, 10, 20 mg kg^−1 intraperitoneal, day 3): did not inflict histopathological damage | levels of ALT, ALP, BUN, CREA and TBIL vs control group (ICR female mice; [10]): no significant differences | relative weights of the liver, spleen, and kidney (ICR female mice; [10]): remained comparable | increase in MIC values after serial passage (S. aureus ATCC 29213 [9]): remained largely unchanged
